Experimental data published in publication PMC11589570, “Critical assessment of LC3/GABARAP ligands used for degrader development and ligandability of LC3/GABARAP binding pockets” (Nature Communications, 2024).
pKd: −log10 of the molar value. “And” between values parts separate entries of the source, which are not always exact repeats. Identical values can stand only once.

Tests used:
Type in all cases: binding
[1] = test system: LC3/GABARAP; test: Chemoproteomic competition pulldown assay (affinity matrix, LC-MS/MS) in HEK293T lysate; conditions: HEK293T cell lysate
Description: Preparation of Affinity Matrix 10O5 and 8F20: Compounds 18 and 19 (1 µM) were linked to DMSO-washed NHS-activated ( ~ […] beads) sepharose beads (1 mL) and triethylamine (20 µL) in DMSO (2 mL) on an end-over-end shaker overnight at RT in the dark. Aminoethanol (50 µL) was then added to inactivate the remaining NHS-activated carboxylic acid groups. […] Successful immobilization was controlled by LC-MS and Kaiser-test[46].
Preparation of cell lysates for affinity pulldown assays: HEK293 cells (ATCC; CRL-11268) were cultured in DMEM (PAN Biotech). All media were supplemented with 10% FBS (PAN Biotech) and cells were internally tested for Mycoplasma contamination. […] The protein amount of cell lysates was determined by Bradford assay and adjusted to a concentration of 5 mg/mL[46]. […]
LC-MSMS measurement of (competition) pulldown assays: Peptides were analyzed via LC-MS/MS on a Dionex Ultimate3000 nano HPLC coupled to an Orbitrap Fusion Lumos mass spectrometer, operated via the Thermo Scientific Xcalibur software. […]
The mass spectrometer was operated in data dependent mode, automatically switching between MS1 and MS2 spectra. […] Up to 12 peptide precursors were isolated (isolation width of 1.2 Th, maximum injection time of 75 ms, AGC value of 2e5), fragmented by HCD using 25 % […] normalized collision energy (NCE) and analyzed in the Orbitrap at a resolution of 15,000. […]

[2] = biological target: T1, KIF11 (Homo sapiens, UniProt P52732); test: as above; conditions: over 4000 proteins identified
T1 construct: endogenous in cells; host or cells: HEK293 / HEK293T (ATCC; CRL-11268) lysate
T1 sequence (P52732 1-1056): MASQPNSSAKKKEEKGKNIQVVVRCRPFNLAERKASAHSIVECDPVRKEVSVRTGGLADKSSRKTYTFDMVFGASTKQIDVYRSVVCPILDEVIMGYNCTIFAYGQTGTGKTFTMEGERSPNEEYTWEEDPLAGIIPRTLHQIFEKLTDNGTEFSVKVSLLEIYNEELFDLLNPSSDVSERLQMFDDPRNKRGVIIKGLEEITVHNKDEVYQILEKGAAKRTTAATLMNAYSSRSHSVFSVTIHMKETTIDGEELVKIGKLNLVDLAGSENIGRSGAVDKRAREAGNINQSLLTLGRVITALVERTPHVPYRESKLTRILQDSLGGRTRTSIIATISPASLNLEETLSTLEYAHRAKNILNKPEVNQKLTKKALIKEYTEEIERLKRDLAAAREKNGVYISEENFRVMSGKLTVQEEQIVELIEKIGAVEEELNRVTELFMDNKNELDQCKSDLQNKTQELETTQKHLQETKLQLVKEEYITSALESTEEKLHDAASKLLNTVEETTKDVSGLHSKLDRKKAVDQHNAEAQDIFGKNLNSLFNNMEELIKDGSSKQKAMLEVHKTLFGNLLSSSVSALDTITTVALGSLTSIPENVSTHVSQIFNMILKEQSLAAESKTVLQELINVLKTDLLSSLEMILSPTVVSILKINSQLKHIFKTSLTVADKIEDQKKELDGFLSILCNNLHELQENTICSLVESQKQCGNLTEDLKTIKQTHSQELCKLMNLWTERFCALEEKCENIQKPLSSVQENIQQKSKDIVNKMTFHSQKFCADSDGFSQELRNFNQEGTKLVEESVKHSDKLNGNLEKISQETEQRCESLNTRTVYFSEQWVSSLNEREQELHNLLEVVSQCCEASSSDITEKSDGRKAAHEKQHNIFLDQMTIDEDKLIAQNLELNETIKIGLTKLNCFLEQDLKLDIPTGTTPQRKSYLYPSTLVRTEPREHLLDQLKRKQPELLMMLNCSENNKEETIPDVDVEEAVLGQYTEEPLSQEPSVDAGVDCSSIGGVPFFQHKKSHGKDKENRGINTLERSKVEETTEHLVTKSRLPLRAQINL

[3] = test system: LC3/GABARAPs (human Atg8 family); test: FP assay with Cy5-labelled p62 LIR tracer, statements on all LC3/GABARAPs
[4] = biological target: T2, LC3A (Homo sapiens, UniProt Q9H492); test: Isothermal titration calorimetry (ITC); conditions: rounded, rebuttal letter; Novobiocin in reverse titration
[5] = biological target: T2, LC3A; test: Isothermal titration calorimetry (ITC); conditions: replicates 1-3, rebuttal letter
Excerpt: To minimize nonspecific dilution heat effects, DMSO concentrations in the protein and compound samples were matched. […] For this protocol, the chamber was pre-equilibrated with the protein, and the test compounds were titrated while continuously measuring the rate of exothermic heat evolution. The heat of binding was integrated, corrected, and fitted to an independent single-binding site model based on the manufacturer’s instructions, from which thermodynamic parameters (ΔH and TΔS), equilibrium association and dissociation constants (KA and KD, respectively), and stoichiometry (n) were calculated using TA Instruments NanoAnalyze software.

| additional targets in proteome-wide pulldown [2] | interaction with LC3/GABARAP family members in FP displacement assay [3] | enthalpies observed in ITC experiments [4] | Enthalpy (ITC, repeated titration) ([5]; listed as LY223982) | Stoichiometry, n (ITC, repeated titration) ([5]; listed as LY223982) | pKd ([5]; read-out: KD (ITC, repeated titration)) | SMILES | enrichment / pulldown of LC3/GABARAP by affinity matrix [1] | Entropy (ITC, repeated titration) ([5]; listed as LY223982) |
| --- | --- | --- | --- | --- | --- | --- | --- | --- |
| No additional targets were detected |  |  |  |  |  | Cc1ccc(C(=O)N(CCCNC(=O)CCOCCOCCOCCN)[C@@H](c2nc3cc(Cl)ccc3c(=O)n2Cc2ccccc2)C(C)C)cc1 [compound 19, (R)-N-(1-amino-12-oxo-3,6,9-trioxa-13-azahexadecan-16-yl)-N-(1-(3-benzyl-7-chloro-4-oxo-3,4-dihydroquinazolin-2-yl)−2-methylpropyl)−4-methylbenzamide] | did not enrich |  |
|  | selective binding to LC3 family members | -7 kcal/mol | -11,64 kCal/mol and -9,814 kCal/mol | 1,011 and 1,038 and 1,021 | 4.95 and 4.94 and 5.00 | COc1ccc(/C=C/CCCCOc2ccc(C(=O)c3cccc(C(=O)O)c3)cc2CCC(=O)O)cc1 [compound 20] |  | -12,88 Cal/(mol*K) and -16,4 Cal/(mol*K) and -10,29 Cal/(mol*K) |
